Experimental data as given in the supplement of paper PMC10331698.
± gives the standard deviation of the averaged measurements.

Legend:
Experiment in all cases: level (log10 ratio to DMSO vehicle control); higher = higher biomarker level / cell amount than vehicle control
Conditions in all cases: in DMSO
[1] = compound: OCCC(F)(F)C(F)(F)C(F)(F)C(F)(F)C(F)(F)C(F)(F)F [6:2 Fluorotelomer alcohol]
Protocol: (§1)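 BioMAP Diversity Plus panel of 12 human primary cell co-culture systems (3C, 4H, LPS, SAg, BT, BF4T, BE3C, CASM3C, HDF3CGF, KF3CT, MyoF, Mphg). Compounds were added 1 h before stimulation and left for 24 h (MyoF 48 h; BT 72 h for soluble read-outs or 6 d for IgG). Biomarkers were read by ELISA, cytotoxicity by SRB, PBMC viability and proliferation by Alamar Blue. Each well value was divided by the mean of 8 DMSO control wells on the same plate and log10 transformed; duplicate blinded samples were tested at 4 concentrations.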

[2] = compound: OCC(F)(F)OC(F)(F)C(F)(F)OC(F)(F)CO [1H,1H,8H,8H-Perfluoro-3,6-dioxaoctane-1,8-diol]
Protocol: as §1

[3] = compound: C=CC(F)(F)C(F)(F)C(F)(F)C(F)(F)C(F)(F)C(F)(F)C(F)(F)C(F)(F)C=C [1,8-Divinylperfluorooctane]
Protocol: as §1

[4] = compound: O=C(O)C(F)(F)C(F)(F)OC(F)(F)F [Perfluoro-3-methoxypropanoic acid]
Protocol: as §1

[5] = compound: O=C(O)C(F)(F)C(F)(F)C(F)(F)C(F)(F)C(F)(F)C(F)(F)C(F)(F)C(F)(F)C(F)(F)F [Perfluorodecanoic acid]
Protocol: as §1

[6] = compound: O=C(O)C(F)(F)C(F)(F)C(F)(F)C(F)(F)F [Perfluoropentanoic acid]
Protocol: as §1

[7] = compound: O=S(=O)(O)C(F)(F)C(F)(F)C(F)(F)C(F)(F)C(F)(F)C(F)(F)F [Perfluorohexanesulfonic acid]
Protocol: as §1

| Test System | level (log10) ([1]; 6700 nM) | level (log10) ([1]; 20000 nM) | level (log10) ([2]; 6700 nM) | level (log10) ([2]; 20000 nM) | level (log10) ([2]; 60000 nM) | level (log10) ([3]; 6700 nM) | level (log10) ([3]; 20000 nM) | level (log10) ([4]; 6700 nM) | level (log10) ([4]; 20000 nM) | level (log10) ([4]; 60000 nM) | level (log10) ([5]; 6700 nM) | level (log10) ([5]; 20000 nM) | level (log10) ([6]; 6700 nM) | level (log10) ([6]; 20000 nM) | level (log10) ([6]; 60000 nM) | level (log10) ([7]; 6700 nM) | level (log10) ([7]; 20000 nM) | level (log10) ([7]; 60000 nM) |
| --- | --- | --- | --- | --- | --- | --- | --- | --- | --- | --- | --- | --- | --- | --- | --- | --- | --- | --- |
| LPS:CD40 | -0.0015 ± 0.03 | -0.0315 ± 0.015 | 0.006 ± 0.027 | 0.017 ± 0.0028 | 0.0005 ± 0.03 | 0.0305 ± 0.018 | 0.0225 ± 0.0064 | 0.0045 ± 0.013 | 0.0095 ± 0.015 | 0.0135 ± 0.039 | -0.015 ± 0.16 | -0.0235 ± 0.12 | 0.0115 ± 0.011 | 0.0075 ± 0.022 | -0.0265 ± 0.013 | 0.004 ± 0.018 | 0.011 ± 0.023 | -0.0045 ± 0.054 |
| LPS:CD62E/E-Selectin | 0.01 ± 0.038 | -0.025 ± 0.025 | -0.0065 ± 0.0078 | -0.0155 ± 0.015 | 0.003 ± 0.0057 | -0.0215 ± 0.029 | -0.023 ± 0.018 | -0.0015 ± 0.011 | -0.0075 ± 0.005 | 0.0105 ± 0.0035 | -0.0115 ± 0.00071 | -0.0205 ± 0.015 | 0.01 ± 0.0057 | -0.004 ± 0.0071 | 0.015 ± 0.018 | -0.0035 ± 0.023 | 0.0025 ± 0.0064 | 0.008 ± 0.035 |
| LPS:CD69 | -0.006 ± 0.04 | 0 | 0.0335 ± 0.083 | 0.033 ± 0.042 | 0.0025 ± 0.029 | -0.0135 ± 0.011 | -0.008 ± 0.014 | -0.0065 ± 0.013 | -0.02 ± 0.013 | 0.013 ± 0.025 | -0.03 ± 0.011 | -0.048 ± 0.0099 | 0.007 ± 0.011 | -0.0305 ± 0.013 | -0.0135 ± 0.083 | -0.0125 ± 0.049 | -0.0035 ± 0.047 | -0.036 ± 0.052 |
| LPS:CD106/VCAM-1 | -0.0045 ± 0.0078 | -0.0025 ± 0.011 | 0.0185 ± 0.033 | -0.02 ± 0.0042 | -0.013 ± 0.033 | -0.0145 ± 0.0092 | -0.033 ± 0.0014 | 0.0065 ± 0.013 | -0.0065 ± 0.00071 | -0.01 ± 0.0028 | 0.0015 ± 0.0035 | -0.001 ± 0.0014 | 0.005 ± 0.013 | 0.004 ± 0.0057 | 0.0035 ± 0.023 | -0.016 ± 0.017 | -0.0155 ± 0.015 | 0.005 ± 0.016 |
| LPS:CD141/Thrombomodulin | 0.002 ± 0.024 | 0.013 ± 0.0042 | 0.004 ± 0.021 | 0.021 ± 0.018 | -0.002 ± 0.014 | -0.0025 ± 0.00071 | 0.011 ± 0.021 | 0.0175 ± 0.036 | 0.0075 ± 0.022 | 0.0255 ± 0.028 | 0.0035 ± 0.00071 | 0.002 ± 0.0057 | -0.0115 ± 0.047 | -0.045 ± 0.073 | -0.0085 ± 0.11 | -0.007 ± 0.0057 | -0.0065 ± 0.013 | -0.008 ± 0.0014 |
| LPS:CD142/Tissue Factor | 0.0285 ± 0.026 | -0.007 ± 0.013 | -0.006 ± 0.014 | -0.0155 ± 0.021 | -0.0135 ± 0.0035 | -0.035 ± 0.035 | -0.043 ± 0.057 | 0.0095 ± 0.013 | 0.032 ± 0.021 | 0.0125 ± 0.073 | 0.018 ± 0.0085 | -0.011 ± 0.0028 | 0.006 ± 0.0099 | -0.007 ± 0.051 | 0.031 ± 0.099 | 0.0055 ± 0.023 | 0.001 ± 0.0028 | 0 ± 0.028 |
| LPS:CXCL8/IL-8 | 0.071 ± 0.038 | 0.039 ± 0.023 | 0.002 ± 0.0071 | 0.0075 ± 0.015 | 0.0075 ± 0.039 | -0.0055 ± 0.005 | 0.0145 ± 0.0078 | 0.0285 ± 0.035 | 0.018 ± 0.017 | 0.027 ± 0.0014 | 0.027 ± 0.0071 | 0.0115 ± 0.0064 | -0.0075 ± 0.00071 | -0.0095 ± 0.022 | 0.0245 ± 0.052 | -0.0005 ± 0.0021 | 0.0025 ± 0.0078 | 0.0675 ± 0.047 |
| LPS:IL-1alpha | 0 ± 0.045 | -0.011 ± 0.016 | -0.0135 ± 0.00071 | -0.022 ± 0.011 | 0.0345 ± 0.0092 | 0.0095 ± 0.019 | 0.0295 ± 0.012 | -0.025 ± 0.0071 | -0.0285 ± 0.0078 | 0.0005 ± 0.0021 | 0.0275 ± 0.016 | -0.0125 ± 0.0092 | -0.0005 ± 0.00071 | -0.0115 ± 0.012 | -0.021 ± 0.017 | -0.001 ± 0.0085 | 0.0075 ± 0.029 | 0.0365 ± 0.026 |
| LPS:M-CSF | 0.0085 ± 0.0035 | -0.005 ± 0.021 | -0.015 ± 0.0042 | -0.018 ± 0.031 | 0.007 ± 0.067 | -0.029 | -0.007 ± 0.031 | 0.001 ± 0.0085 | -0.0165 ± 0.00071 | 0.0235 ± 0.015 | -0.0015 ± 0.015 | -0.0045 ± 0.018 | -0.031 ± 0.024 | -0.061 ± 0.11 | -0.0385 ± 0.11 | -0.0065 ± 0.025 | -0.0045 ± 0.025 | 0.036 ± 0.02 |
| LPS:SRB | 0.0095 ± 0.0078 | 0.004 ± 0.0071 | -0.0075 ± 0.012 | -0.0125 ± 0.0092 | -0.0205 ± 0.005 | -0.005 ± 0.0057 | 0.013 ± 0.0099 | 0.006 ± 0.0085 | 0.011 ± 0.0099 | 0.026 ± 0.0028 | 0.01 ± 0.0071 | 0.003 ± 0.0042 | 0.0015 ± 0.0078 | 0.004 | 0.003 ± 0.0085 | -0.0075 ± 0.013 | -0.0115 ± 0.00071 | -0.0175 ± 0.018 |
| LPS:sPGE2 | -0.028 ± 0.05 | -0.0465 ± 0.039 | -0.0235 ± 0.019 | -0.023 ± 0.045 | -0.0195 ± 0.00071 | -0.005 ± 0.034 | -0.035 ± 0.075 | -0.0295 ± 0.03 | 0.0045 ± 0.052 | -0.0185 ± 0.011 | -0.017 ± 0.025 | -0.052 ± 0.0071 | -0.008 ± 0.11 | -0.018 ± 0.0028 | 0.017 ± 0.011 | 0.0115 ± 0.0064 | -0.007 ± 0.0099 | -0.106 ± 0.028 |
| LPS:sTNF-alpha | -0.0335 ± 0.17 | -0.016 ± 0.16 | -0.0235 ± 0.025 | -0.0435 ± 0.032 | -0.0335 ± 0.022 | 0.055 ± 0.016 | 0.035 ± 0.035 | 0.036 ± 0.011 | 0.036 ± 0.045 | 0.06 ± 0.059 | -0.0245 ± 0.011 | -0.02 ± 0.017 | 0.003 ± 0.021 | 0.01 ± 0.0071 | 0.021 ± 0.014 | -0.007 ± 0.025 | -0.0195 ± 0.015 | -0.0695 ± 0.0092 |
| SAg:CCL2/MCP-1 | -0.0165 ± 0.0035 | -0.0115 ± 0.00071 | 0.0085 ± 0.005 | -0.0105 ± 0.012 | 0.011 ± 0.037 | -0.001 ± 0.0028 | 0.004 ± 0.0014 | -0.007 ± 0.013 | -0.0075 ± 0.0092 | -0.0035 ± 0.0078 | 0.0065 ± 0.0064 | -0.017 ± 0.0014 | 0.0085 ± 0.021 | -0.0205 ± 0.011 | 0.023 ± 0.031 | 0.015 ± 0.0071 | 0.0095 ± 0.018 | 0.017 |
| SAg:CD38 | 0.0115 ± 0.026 | -0.008 ± 0.0071 | -0.006 ± 0.02 | -0.0105 ± 0.013 | -0.0015 ± 0.0021 | -0.009 ± 0.016 | -0.0055 ± 0.0092 | -0.007 ± 0.0042 | 0.003 ± 0.0085 | -0.0005 ± 0.012 | -0.009 ± 0.0014 | -0.017 ± 0.0057 | 0.003 ± 0.017 | 0.0015 ± 0.011 | 0.002 ± 0.0057 | -0.006 ± 0.014 | 0.004 ± 0.038 | -0.023 ± 0.014 |
